How the values were obtained:
TLR5 = TLR5 (Mus musculus, UniProt Q9JLF7); conditions: mouse BMDCs; flagellin; 1.7, 8.5 or 17 μM
monocytes = assay: Monocyte adhesion assay (TNFα-stimulated HUVEC); type: cell-based, human; conditions: 1-10 μg/ml VB-201; compared to the solvent control
Method: Matrix plates were pre-seeded with HUVEC and subjected to 4 hour stimulation with 10 ng/ml TNFα to induce expression of adhesion molecules. Freshly isolated monocytes were stained for 30 minutes with 5 µM calcein AM (Invitrogen) in serum free RPMI and then washed twice with PBS to remove excess dye. […] 10^5 stained monocytes were loaded per well into 96-well dishes and allowed to adhere for 15 minutes. Following 4 washes with PBS, adherent monocyte intensity was read using FLUOROSKAN Ascent FL device using excitation at 485 nm and emission at 538 nm.
Next, we examined whether VB-201 or oxidized PAPC treatment of monocytes affects their interaction with endothelial cells. HUVEC were plated in 96-wells and treated with TNFαc to induce expression of adhesion molecules. […] Following extensive washes, adherent monocytes were quantified by fluorescence.

TLR4 = TLR4 (Homo sapiens, UniProt O00206); conditions: human monocytes; LPS; 1.7, 8.5 or 17 μM
Chain of TLR4 (O00206 24-839): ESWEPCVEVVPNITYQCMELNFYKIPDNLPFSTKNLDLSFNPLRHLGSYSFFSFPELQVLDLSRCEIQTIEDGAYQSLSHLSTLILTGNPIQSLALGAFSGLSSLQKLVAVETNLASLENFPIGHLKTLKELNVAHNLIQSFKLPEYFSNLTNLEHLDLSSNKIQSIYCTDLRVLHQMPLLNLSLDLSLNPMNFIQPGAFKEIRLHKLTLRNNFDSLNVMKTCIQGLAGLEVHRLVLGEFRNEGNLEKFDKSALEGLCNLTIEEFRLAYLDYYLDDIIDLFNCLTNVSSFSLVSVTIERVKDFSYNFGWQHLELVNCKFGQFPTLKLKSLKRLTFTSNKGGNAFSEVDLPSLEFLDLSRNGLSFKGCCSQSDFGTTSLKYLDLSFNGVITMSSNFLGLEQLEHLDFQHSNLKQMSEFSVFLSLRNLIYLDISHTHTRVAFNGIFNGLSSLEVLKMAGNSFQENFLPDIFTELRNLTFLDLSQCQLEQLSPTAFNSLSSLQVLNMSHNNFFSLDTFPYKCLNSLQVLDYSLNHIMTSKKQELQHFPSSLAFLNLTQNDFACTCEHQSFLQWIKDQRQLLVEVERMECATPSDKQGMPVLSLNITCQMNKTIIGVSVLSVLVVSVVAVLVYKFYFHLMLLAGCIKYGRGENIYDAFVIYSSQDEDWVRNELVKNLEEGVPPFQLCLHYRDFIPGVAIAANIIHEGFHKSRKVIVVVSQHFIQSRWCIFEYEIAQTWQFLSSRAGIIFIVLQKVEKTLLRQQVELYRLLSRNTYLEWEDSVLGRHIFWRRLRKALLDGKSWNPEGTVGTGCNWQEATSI
Chain of TLR4 (Q9Y6Y9 17-160 partner limits assumed): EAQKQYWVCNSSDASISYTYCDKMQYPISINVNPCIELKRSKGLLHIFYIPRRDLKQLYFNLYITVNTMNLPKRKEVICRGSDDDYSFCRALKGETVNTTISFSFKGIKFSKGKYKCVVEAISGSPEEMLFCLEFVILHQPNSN

[1] = tested on: Human monocytes (CD14+ cells); assay: In vitro cell migration (trans-well chemotaxis) assay of human monocytes; type: cell-based
Method: Following incubation, cells were loaded to the upper chamber and allowed to migrate for 3.5 hours towards 0.5% fetal bovine serum/RPMI-1640 medium supplemented with recombinant human MCP-1 and RANTES (50 ng/ml each).
In order to further ascertain the significance of ERK1/2 phosphorylation and MEK1/2 phosphorylation to monocyte chemotaxis, the effect of the RAF inhibitor GW5074, which reduces MEK and ERK phosphorylation, on monocyte chemotaxis was determined in a trans-well migration assay using a combination of MCP-1 ([…]) and RANTES (70 ng/ml) as attractant. Monocytes were pre-treated with 5 μM GW5074 for 30 minutes prior to seeding in the migration chamber.
For this purpose, monocytes from healthy donors were pre-incubated for 30 min with either solvent (0.005% ethanol/PBS), phosphatidylcholine (PC; 5 μg/ml), partially oxidized PAPC (24 h oxidation; 40 μg/ml) or PGPC (5 μg/ml), and allowed to migrate towards recombinant human MCP-1 (CCL2; ligand for CCR2) and RANTES (CCL5; ligand for CCR1, CCR3, CCR5, US28) as attractants (50 ng/ml each). […]

[2] = Plasma concentration of VB-201 (Liquid Chromatography-Tandem Mass Spectrometry); type: in vivo, mouse; conditions: oral
Method: In this model, injection of thioglycollate to the peritoneal cavity induces a “sterile” inflammatory response recruiting peripheral monocytes to the peritoneum, where they differentiate into macrophages (Li, Y. M., et al., J. Immunol. Methods. 1997; 201:183-188). […] Upon sacrifice, the number and identity of the cells accumulating in the peritoneum was determined by FACS, and plasma samples were taken for quantification by Liquid Chromatography-Tandem Mass Spectrometry. Three days after thioglycollate injection 95% of the cells in the peritoneum were macrophages (F4/80 positive, GR-1 negative cells) (FIG. 26B).

TLR9 = TLR9 (Mus musculus, UniProt Q9EQU3); conditions: mouse BMDCs; CpG; 1.7, 8.5 or 17 μM
Chain of TLR9 (Q9EQU3 26-1032): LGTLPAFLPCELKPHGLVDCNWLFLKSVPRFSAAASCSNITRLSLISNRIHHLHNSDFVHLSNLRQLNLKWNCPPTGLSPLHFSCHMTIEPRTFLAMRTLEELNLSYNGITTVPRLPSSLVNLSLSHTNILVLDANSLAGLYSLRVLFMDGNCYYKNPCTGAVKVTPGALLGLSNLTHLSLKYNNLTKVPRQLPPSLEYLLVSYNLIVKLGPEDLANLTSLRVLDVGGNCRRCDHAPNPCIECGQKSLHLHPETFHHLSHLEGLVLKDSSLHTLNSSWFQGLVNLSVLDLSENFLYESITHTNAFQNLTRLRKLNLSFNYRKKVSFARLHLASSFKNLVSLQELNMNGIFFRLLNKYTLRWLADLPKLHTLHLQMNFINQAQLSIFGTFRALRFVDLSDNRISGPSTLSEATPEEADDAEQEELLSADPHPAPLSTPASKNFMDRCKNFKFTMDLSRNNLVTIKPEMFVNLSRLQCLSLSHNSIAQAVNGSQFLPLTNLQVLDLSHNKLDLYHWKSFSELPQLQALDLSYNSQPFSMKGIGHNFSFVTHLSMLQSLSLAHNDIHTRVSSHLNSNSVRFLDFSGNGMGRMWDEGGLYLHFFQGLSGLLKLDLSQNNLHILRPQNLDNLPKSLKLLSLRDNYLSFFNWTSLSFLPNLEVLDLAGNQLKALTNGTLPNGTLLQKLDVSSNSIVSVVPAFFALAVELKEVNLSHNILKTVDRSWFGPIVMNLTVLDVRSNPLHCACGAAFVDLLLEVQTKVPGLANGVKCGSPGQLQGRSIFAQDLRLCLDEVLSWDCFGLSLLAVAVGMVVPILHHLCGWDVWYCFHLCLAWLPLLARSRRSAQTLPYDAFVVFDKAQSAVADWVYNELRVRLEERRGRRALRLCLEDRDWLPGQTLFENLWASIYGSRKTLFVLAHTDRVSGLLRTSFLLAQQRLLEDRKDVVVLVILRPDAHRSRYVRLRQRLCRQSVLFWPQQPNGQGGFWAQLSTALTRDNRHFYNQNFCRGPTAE

CD4+ T-cells = assay: Chemotaxis assay of CD4+ T-cells; conditions: 5 μg/ml; RANTES (100 ng/ml) and SDF-1α (50 ng/ml)
Method: Human monocytes (CD14+ cells) and CD4+ T-cells were isolated from whole blood of healthy donors. Following PBMCs separation from whole blood using Ficoll-Paque and leucosep tubes (Greiner Bio-One), CD14+/CD4+ cells were separated using specific anti-CD14/anti-CD4 micro beads, respectively (Miltenyi Biotech). Purity of the isolated populations was validated using specific antibodies by FACS analysis. […] For chemo-attraction of monocytes, RANTES (100 ng/ml), MIP-1α (50 ng/ml) or MCP-1 (50 ng/ml) were dissolved in 0.5% fetal bovine serum(FBS)/RPMI-1640 medium and placed at the lower chamber of QCM™ 24-well migration assay plate (Corning-Costar; 5 μm pores). For chemo-attraction of CD4+ cells, 0.5% FBS/RPMI-1640 solution containing RANTES (100 ng/ml) and SDF-1α (50 ng/ml) was used, using the same plate setting. Migration assay was conducted by seeding 300,000 treated cells in the upper chamber, followed by incubation of 3-4 hours. Subsequently, the number of cells which migrated to the medium in the lower compartment was determined by FACS.

THP-1 cells = assay: AKT and ERK pathway activation in THP-1 cells, Western blot; conditions: 8.5 μM VB-201, 20 min
Method: THP-1 cells were incubated for 16 hrs in RPMI-1640 medium supplemented with 0.5% FBS and 1% Pen/Strep/Glutamine to reduce basal signaling readouts. […] Stimulation with 100 μM GTP-γ-s, an activator of G-proteins, was performed for 2, 5 or 15 minutes. Cells were harvested and analyzed by SDS-PAGE. […] Total ERK1/2 levels serve as loading control.
The THP1 or HEK293 cell lines were grown in medium supplemented with 0.5% FBS and 1% Pen/Strep/Glutamine. […] Cells were washed twice and harvested with lysis buffer and analyzed by SDS-PAGE. […] Alpha Tubulin levels serve as loading control.
THP-1 cells were incubated for 16 hrs in RPMI-1640 medium supplemented with 0.5% FBS and 1% Pen/Strep/Glutamine to reduce basal signaling readouts. […] Stimulation with 30 μg/ml of CRP, activator the CD32 and CD64 receptors, was performed for 2, 5 or 15 min. Cells were harvested and analyzed by SDS-PAGE. […] Total ERK1/2 levels serve as loading control.

TLR2 = TLR2 (Homo sapiens, UniProt O60603); conditions: human monocytes; BO-VB201; anti-human TLR2 blocking antibody
Chain of TLR2 (O60603 21-784): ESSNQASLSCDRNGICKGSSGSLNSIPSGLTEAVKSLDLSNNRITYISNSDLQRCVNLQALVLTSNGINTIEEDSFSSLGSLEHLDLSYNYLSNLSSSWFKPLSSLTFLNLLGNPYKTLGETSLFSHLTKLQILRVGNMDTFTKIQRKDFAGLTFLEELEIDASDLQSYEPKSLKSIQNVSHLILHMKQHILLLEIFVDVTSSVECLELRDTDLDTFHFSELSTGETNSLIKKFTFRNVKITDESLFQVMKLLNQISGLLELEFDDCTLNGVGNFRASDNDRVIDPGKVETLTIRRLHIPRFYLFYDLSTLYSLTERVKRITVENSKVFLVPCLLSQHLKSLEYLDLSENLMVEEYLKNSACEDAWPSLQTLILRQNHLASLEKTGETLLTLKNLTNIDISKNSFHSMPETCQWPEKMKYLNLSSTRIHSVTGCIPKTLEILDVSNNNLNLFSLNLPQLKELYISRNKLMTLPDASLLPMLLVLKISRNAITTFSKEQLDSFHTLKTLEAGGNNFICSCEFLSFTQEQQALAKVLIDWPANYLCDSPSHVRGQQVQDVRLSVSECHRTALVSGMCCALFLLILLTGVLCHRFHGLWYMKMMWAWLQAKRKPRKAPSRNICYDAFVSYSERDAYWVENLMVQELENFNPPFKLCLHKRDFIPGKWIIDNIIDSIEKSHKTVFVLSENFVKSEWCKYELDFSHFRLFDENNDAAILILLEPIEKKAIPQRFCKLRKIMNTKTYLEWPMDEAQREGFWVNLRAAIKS
Method: Human monocytes were incubated for 15 min with anti-human TLR2 blocking antibody. […] Streptavidin-APC (1:200) was used to detect binding.

CCR5 = CCR5 (Homo sapiens, UniProt P51681); conditions: escalating doses
Chain of CCR5 (P51681 whole entry): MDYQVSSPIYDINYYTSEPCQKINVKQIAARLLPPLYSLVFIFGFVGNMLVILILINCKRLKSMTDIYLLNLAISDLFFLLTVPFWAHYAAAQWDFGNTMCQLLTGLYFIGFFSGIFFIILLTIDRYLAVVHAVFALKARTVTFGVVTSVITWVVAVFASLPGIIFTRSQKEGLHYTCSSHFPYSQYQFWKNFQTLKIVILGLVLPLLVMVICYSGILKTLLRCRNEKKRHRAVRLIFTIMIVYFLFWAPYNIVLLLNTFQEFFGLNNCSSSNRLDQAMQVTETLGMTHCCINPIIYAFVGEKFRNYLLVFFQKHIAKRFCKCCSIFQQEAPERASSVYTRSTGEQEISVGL
Method: (§1) Analyses were performed by Millipore GPCR Profiler Service, by measuring intracellular calcium signal in real time using FLIPR^TETRA device. […] Antagonist percentage inhibition was referenced to EC80 control wells for each tested GPCR.

CCR2B = CCR2B (Homo sapiens, UniProt P41597); conditions: escalating doses
Chain of CCR2B (P41597 1-360 isoform P41597-2): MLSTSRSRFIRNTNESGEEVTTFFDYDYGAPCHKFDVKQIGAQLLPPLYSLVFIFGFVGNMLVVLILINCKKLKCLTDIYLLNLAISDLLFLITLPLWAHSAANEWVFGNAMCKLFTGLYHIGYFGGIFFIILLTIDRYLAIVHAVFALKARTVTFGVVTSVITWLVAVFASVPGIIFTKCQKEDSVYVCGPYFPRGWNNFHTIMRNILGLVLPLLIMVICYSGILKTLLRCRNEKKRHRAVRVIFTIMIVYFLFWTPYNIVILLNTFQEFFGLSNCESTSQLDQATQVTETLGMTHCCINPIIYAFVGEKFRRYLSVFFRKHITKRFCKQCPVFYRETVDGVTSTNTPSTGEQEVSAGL
Method: as §1

[3] = tested on: Human monocyte-derived dendritic cells (DCs); assay: cAMP accumulation assay; type: cell-based; conditions: 4 hours; VB-201 1-5 μg/ml; oxidized PAPC escalating doses; forskolin positive control
Method: Cells were incubated for 4 hours at 37° C. in the presence of the phosphodiesterase inhibitors IBMX (Calbiochem; 0.5 mM) and RO-20-1724 (Biomol; 0.5 mM) to prevent cAMP degredation. For the quantification of [^3H]cAMP formation, the incubation was terminated by removal of the medium and addition of 2.5% perchloric acid containing 0.1 mM unlabeled cAMP (Sigma), followed by neutralization with 4.2 M KOH and 1.85 M K2CO3.

RAW 264.7 macrophages = conditions: 0, 8.5 or 17 μM VB-201; streptavidin-APC
From the text: Cells were washed and LPS binding was detected using streptavidin-APC.
CD14 is known to bind to lipopolysaccharide (LPS).

[4] = tested on: kinases, phosphatases, ion channels/ransporters; assay: Selectivity: effect on activity of additional proteins
[5] = tested on: NIH-3T3 mouse fibroblasts; assay: Wound-healing 'scratch' assay; type: cell-based; conditions: data not shown

Chain of TLR5 (Q9JLF7 27-859): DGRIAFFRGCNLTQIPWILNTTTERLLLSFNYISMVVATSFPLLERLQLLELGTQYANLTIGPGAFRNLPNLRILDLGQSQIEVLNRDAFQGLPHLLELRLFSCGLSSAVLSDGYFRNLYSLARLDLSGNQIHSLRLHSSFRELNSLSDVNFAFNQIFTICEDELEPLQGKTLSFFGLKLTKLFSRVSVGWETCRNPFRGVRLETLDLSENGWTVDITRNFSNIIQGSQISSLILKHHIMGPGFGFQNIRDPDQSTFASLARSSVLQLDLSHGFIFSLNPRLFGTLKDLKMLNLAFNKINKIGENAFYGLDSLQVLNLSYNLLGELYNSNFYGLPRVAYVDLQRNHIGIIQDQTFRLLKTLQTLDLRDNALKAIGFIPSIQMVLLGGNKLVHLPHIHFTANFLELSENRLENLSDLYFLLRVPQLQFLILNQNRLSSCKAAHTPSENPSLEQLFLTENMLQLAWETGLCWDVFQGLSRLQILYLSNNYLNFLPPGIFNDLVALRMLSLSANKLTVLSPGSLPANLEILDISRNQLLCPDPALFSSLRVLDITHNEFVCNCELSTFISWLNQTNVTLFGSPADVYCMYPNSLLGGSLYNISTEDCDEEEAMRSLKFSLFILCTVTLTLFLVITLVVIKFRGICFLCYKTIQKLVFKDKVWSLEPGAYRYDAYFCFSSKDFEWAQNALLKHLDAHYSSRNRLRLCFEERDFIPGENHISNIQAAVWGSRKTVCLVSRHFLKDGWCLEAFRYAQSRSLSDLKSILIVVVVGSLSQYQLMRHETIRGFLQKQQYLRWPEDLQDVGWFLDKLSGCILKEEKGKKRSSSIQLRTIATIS

Question: With `CCCCCCCCCCCCCCCCOC[C@H](COP(=O)([O-])OCC[N+](C)(C)C)OCCCCC(=O)O` [VB-201, (R)-1-hexadecyl-2-(4′-carboxyl)butyl-sn-glycero-3-phosphocholine] as the molecule, how does the “p38 phosphorylation following activation of TLR5” value (TLR5) read?
Answer: no apparent effect

Question: What about the “monocyte adhesion to HUVEC” value (monocytes) of the same molecule?
Answer: had no effect on their adhesion to HUVEC

Question: What about the “activation of p38, ERK1/2 and the NFκB pathway following activation of TLR4” value (TLR4) of the same molecule?
Answer: inhibited activation of p38, ERK1/2 and the NFκB pathway in a dose-dependent manner

Question: And the “C-reactive protein-induced chemotaxis of human monocytes” value ([1]; 8.5 μM VB-201, 30 min, 50 ug/ml CRP, 3.5 hours, p<0.01)?
Answer: inhibit chemotaxis induced by CRP

Question: What about the “reduction of monocyte chemotaxis towards MCP-1 and RANTES (50 ng/ml each)” value ([1]; 30 min pre-incubation, PC 5 μg/ml, partially oxidized PAPC 40 μg/ml, PGPC 5 μg/ml, VB-201 5 μg/ml) of the same molecule?
Answer: profound inhibition of monocyte chemotaxis

Question: What about the “reduction of monocyte migration, MCP-1 as chemoattractant” value ([1]; VB-201 5 μg/ml, MCP-1 50 ng/ml, compared to solvent control) of the same molecule?
Answer: approximately 80%

Question: And the “reduction of monocyte migration, MIP-1α as chemoattractant” value ([1]; VB-201 5 μg/ml, MIP-1α 50 ng/ml, compared to solvent control)?
Answer: ~68%

Question: What about the “reduction of monocyte migration, RANTES as chemoattractant” value ([1]; VB-201 5 μg/ml, RANTES 100 ng/ml, compared to solvent control) of the same molecule?
Answer: ~72%

Question: And the “monocyte chemotaxis towards the compound (cell attractant in lower chamber)” value ([1]; data not shown)?
Answer: no monocyte chemotaxis towards VB-201 occurred

Question: What about the “inhibition of monocyte migration towards HUVEC growth medium” value ([1]; dose of 5 μg/ml) of the same molecule?
Answer: about 60%

Question: And the “monocyte migration towards HUVEC growth medium” value ([1]; escalating doses)?
Answer: reduced the number of migrating cells in a dose-dependent fashion

Question: What about the “VB-201 in mice plasma” value ([2]; 0.4 mg/kg) of the same molecule?
Answer: 0.8 ± 0.3 µmol/L

Question: What about the VB-201 plasma level ([2]; 4 mg/kg) of the same molecule?
Answer: 8.5 ± 1.5 µmol/L

Question: And the “p38 phosphorylation following activation of TLR9” value (TLR9)?
Answer: no apparent effect

Question: And the CD4 cell chemotaxis (CD4+ T-cells)?
Answer: unable to find any inhibition

Question: What about the “phospho-AKT(Ser473) levels” value (THP-1 cells; 30 μg/ml CRP) of the same molecule?
Answer: reduction in phospho-ERK1/2 and phospho-AKT(Ser473) levels

Question: And the phospho-ERK1/2 levels (THP-1 cells; 30 μg/ml CRP)?
Answer: reduction in phospho-ERK1/2 and phospho-AKT(Ser473) levels

Question: And the “phospho-AKT(Ser473) levels” value (THP-1 cells; 100 μM GTP-γ-s)?
Answer: reduction in phospho-ERK1/2 and phospho-AKT (Ser473) levels

Question: And the phospho-ERK1/2 levels (THP-1 cells; 100 μM GTP-γ-s)?
Answer: reduction in phospho-ERK1/2 and phospho-AKT (Ser473) levels

Question: And the “EGF-induced ERK1/2 phosphorylation” value (THP-1 cells; EGF 200 ng/ml)?
Answer: inhibition of ERK1/2 phosphorylation in the THP-1 monocytic cell line

Question: What about the “binding to cell surface expressed TLR2” value (TLR2) of the same molecule?
Answer: Binds Cell Surface Expressed TLR2

Question: And the “antagonistic effect against CCR5” value (CCR5)?
Answer: did not induce an antagonistic effect

Question: And the “antagonistic effect against CCR2B” value (CCR2B)?
Answer: did not induce an antagonistic effect

Question: And the “intracellular cAMP levels” value [3]?
Answer: not affected

Question: And the “binding of biotinylated LPS to macrophages” value (RAW 264.7 macrophages)?
Answer: inhibited binding of biotinylated LPS to macrophages in a dose dependent manner

Question: What about the “inhibition of kinases, phosphatases, ion channels/ransporters” value [4] of the same molecule?
Answer: No inhibition

Question: And the “cell migration in wound-healing scratch assay” value [5]?
Answer: no effect on cell migration

Reference: patent publication US20150320773A1, “TREATMENT OF INFLAMMATION” (Vascular Biogenics Ltd., priority 2011, published 2015)
